Assay results reported in publication PMC7802073, “Small Molecule Inhibitors of the Bacterioferritin (BfrB)–Ferredoxin (Bfd) Complex Kill Biofilm-Embedded Pseudomonas aeruginosa Cells” (ACS Infectious Diseases, 2020).
Values after ≈ are worked out from the molar mass of the structure shown. Values joined by “and” are separate entries in the source; they are usually repeats but may differ in a detail not shown here. Equal values may be shown once.

Columns and labels:
[1] = test system: EYFP-expressing P. aeruginosa PAO1 pellicles; assay: Viable cells (CFU/mL) dispersed from pellicle biofilms; format: cell-based, Pseudomonas aeruginosa; details: 24 h; for viable cell count relative to the untreated pellicle (% cell survival): KM-5-25 40 μM (0.6× IC50) or KM-5-66 20 μM (0.5× IC50)
Protocol: Pellicle biofilms were grown as described above. Planktonic and loosely attached cells were washed (3 times) by immersing the coverslip-adhered pellicles (biofilm facing up) into a well of a 12-well plate containing 3 mL PBS, and incubating (5 min) with gentle rocking. To remove the pellicle from the coverslip, break the extracellular matrix and release cells from the biofilm, the coverslip-adhered pellicle was placed in a 50 mL conical tube containing a 2 mL suspension of zirconia beads (0.1 mm diameter, BioSpec Products), 10 mL PBS, 0.2 μg/mL alginate lyase and 0.2 μg/mL DNase. The resultant mixture was incubated at room temperature for 3 min, followed by vigorous vortexing for 4 min. After sedimentation of the zirconia beads, a 100 μL aliquot was used for serial dilution and plating on PIA plates for subsequent enumeration of viable cells (CFU/mL).

P. aeruginosa PAO1 = assay: microbe, parasite or virus in culture; format: cell-based, Pseudomonas aeruginosa; details: for secreted pyoverdine relative to untreated control, fluorescence at 460 nm normalized to CFU/mL: KM-5-25 70 μM or KM-5-66 50 μM, 27 h, M63 media; for viability at 50 µM: Pseudomonas aeruginosa, PAO1, 27 h, read-out: viable cells relative to the untreated control
Protocol: Cultures of P. aeruginosa PAO1 treated with KM-5-25 (70 μM) or KM-5-66 (50 μM) were grown for 27 h prior to diluting the contents of each well in PBS (pH 7.4) and plating the cells on PIA plates for enumeration of CFU/mL. The 500-fold diluted solution was clarified by centrifugation and the pyoverdine in the cell-free supernatant was analyzed by acquiring fluorescence emission spectra (430–550 nm) with excitation at 400 nm (10 nm slit width) and emission at λmax = 460 nm (10 nm slit width) using a PerkinElmer LS50B spectrophotometer.
Figure S5. P. aeruginosa cells treated with 4-aminoisoindoline-1,3-dione derivatives overproduce pyoverdine. (A) P. aeruginosa cultures treated with KM-5-25 (70 µM) or KM-5-66 (50 µM) for 27 h have ~35% of the viable cells in the untreated control. (B) Fluorescence spectra from cell -free supernatant corresponding to untreated cultures ( solid line), treated with KM-5-25 (dashed line), or treated with KM-5-66 (dotted line). (C) Fluorescence intensity normalized to the number of viable […]
pyoverdine than cells in the untreated control. Averages and standard deviations for 3 biological replicates are shown. p < 0.01 denoted by ** and p < 0.001 by *** relative to untreated.
(1 picture or pasted object on this page, not shown here)

Aqueous solubility = format: physicochemical; details: aqueous media; read-out: soluble in aqueous media to
[2] = test system: Pellicles of P. aeruginosa PAO1 expressing EYFP; assay: Pellicle biofilm assay, CLSM imaging and COMSTAT viable biomass; format: cell-based, Pseudomonas aeruginosa; details: 24 h, approximately 1.2× IC50 (KM-5-25 80 μM, KM-5-66 50 μM)
Protocol: Pellicle biofilms of EYFP-expressing P. aeruginosa PAO1 or clinical isolates were grown in PI media supplemented with 20 μM Fe. Starter cultures were diluted to OD600 = 0.001 in 4 mL media, placed in 35 × 10 mm Petri dishes and incubated statically at 30 °C for 48 h. The pellicles were transferred onto circular (1.5 cm diameter) glass coverslips by gently allowing the surface of a coverslip to contact a pellicle. The pellicle-adhered coverslip was washed in PBS and then deposited on top of 1.5 mL AB challenge media contained in a well of a 12-well microplate, with the pellicle exposed to the media. […] The coverslip-adhered pellicles were exposed to challenge media at 30 °C for 24 h, changing the challenge media every 12 h by transferring the pellicle-adhered coverslip to a new plate containing prewarmed challenge media.
Excess fluorescent dye was washed with PBS, the coverslip was mounted on a glass slide using 5 μL SlowFade (Invitrogen Life Technologies) and the edges sealed with fingernail polish. CLSM image stacks (z-step size of 0.3 μm) were acquired with the aid of a Leica TCS SP8 microscope, as described above. Quantitative analysis was performed by determination of pellicle biomass using COMSTAT[55] and the Otsu method of automatic thresholding.[86]

[3] = 2-day old pellicles, 1.2× IC50 (KM-5-25 80 μM, KM-5-66 50 μM)
[4] = compound at 1.2× IC50 combined with colistin 25× MIC (20 μM)
[5] = compound at 1.2× IC50 combined with colistin 25× MIC
[6] = compound at 1.2× IC50 combined with colistin 50× MIC (40 μM)
[7] = compound at 1.2× IC50 combined with colistin 50× MIC
[8] = compound at 1.2× IC50 combined with tobramycin 25× MIC (27 μM)
[9] = compound at 1.2× IC50 combined with tobramycin 25× MIC
[10] = compound at 1.2× IC50 combined with tobramycin 50× MIC

Row | SMILES | % survival relative to cells in the pretreated biofilm ([1]; 2-day old pellicles, 0.6× IC50) [%] | % survival relative to cells in the pretreated biofilm [1, 3] [%] | viable cell count relative to the untreated pellicle (% cell survival) ([1]; 2-day old pellicles) | % survival, combination treatment [1, 4] [%] | reduction of viable cells relative to treatment with colistin alone [1, 5] | % survival, combination treatment [1, 6] [%] | reduction of viable cells relative to treatment with colistin alone [1, 7] [log] | % survival, combination treatment [1, 8] [%] | reduction of viable cells relative to treatment with tobramycin alone [1, 9] | % survival, combination treatment [1, 10] [%] | reduction of viable cells relative to treatment with tobramycin alone [1, 10] [log] | secreted pyoverdine relative to untreated control, fluorescence at 460 nm normalized to CFU/mL (P. aeruginosa PAO1) [fold] | viability at 50 µM (P. aeruginosa PAO1) [%] | solubility (Aqueous solubility) [µM] | cells in the pellicle killed (COMSTAT) [2] [%] | % survival relative to cells in the pellicles prior to treatment ([1]; 2-day old pellicles, 0.3× IC50)
1 | O=C1NC(=O)c2c(NCc3cc(Cl)ccc3O)cccc21 [KM-5-25, 4-((5-Chloro-2-hydroxybenzyl)amino)isoindoline-1,3-dione] | ~38 | ~25 | 42% and 42.5% | ~1 | ~1 log | ~0.5 | ~0.7 | ~0.5 | approximately 2.5 log | ~0.003 | ~4.7 | ~5 | ~35 | ~110 (≈ 33.3 µg/mL) | ~85 | –
2 | O=C1NC(=O)c2c(NCCCc3cc(O)cc(Cl)c3)cccc21 [KM-5-66, 4-((3-(3-Chloro-5-hydroxyphenyl)propyl)amino)isoindoline-1,3-dione] | ~21 | ~15 | 37% and 37.2% | ~0.3 | approximately 1.7 log | ~0.02 | ~1.9 | 5 | approximately 1.5 log | 1 | ~2 | ~5 | ~35 | ~80 (≈ 26.5 µg/mL) | ~85 | approximately 57%
